Results on one substance are retold here after patent US8680075B2, “Methods and compositions for inhibiting cellular proliferation and surgical adhesion” (Novelmed Therapeutics, Inc., priority 2009, dated 2014).

Entries after “also recorded” stand apart in the source; their conditions may differ.

For one data set, the system named is C6 cells. The data set can be described thus: Glioma (C6 cell) proliferation in cloning ring culture. The conditions noted are these: five days; for concentration of maximal effect on glioma proliferation: C6 cells. The class given is cell-based. The method, then:
In a six well plate, a cloning ring of 6 mm diameter was placed and 60 μl aliquot of cellular suspension (stock containing 320,000 cells/ml of C6 cells) was prepared and placed in the center of each well of a six well plate in the cloning ring. After 4 h, the media was removed and the cells were incubated with Opti-MEM 1× media with and without the compound. These cultures were incubated at 37° C. and with 10% CO2 for five days, following which the pictures were taken as shown in FIG. 2. The compound effect appears to be dose dependent with maximal effect shown at […]. The first panel is for controls (untreated), the second panel at 3 mg/ml, the third panel at 1.5 mg/ml, the fourth panel at 0.75 mg/ml, and the fifth panel at 0.36 mg/ml.

The subject of data set [1] is epidural fibrosis after lumbar laminectomy. The data set can be described thus: Rat laminectomy epidural fibrosis model, Example 6. It counts as in vivo. As to conditions: two weeks after laminectomy. An excerpt:
The scar tissue attachment to the spinal cord is believed to be the cause of long-term, recurrent pain following laminectomy procedures. The epidural fibrosis refers to the scar tissue that forms following a laminectomy procedure. Laminectomy refers to back surgery of the lamina. Scar tissue forms within the laminectomy site and binds the undersurface of the erector spinae muscles to the posterior and lateral surfaces of the dura mater and to the nerve roots exiting through the dura matter. Epidural fibrosis was investigated after lumbar laminectomy in rats. In this model, a laminectomy is performed at the lumbar 3 (L3) and 5 (L5) vertebrae and then the test agent is applied to the laminectomy site. Subsequently, the laminectomy sites are examined for fibrosis by gross dissection.
Laminectomies were performed at lumbar vertebrae L3 and L5 to provide auto-controls within each animal. Gelfoam-NM2040 mix was prepared and used on Laminectomy sites in rats. Lewis inbred rats were anesthetized isofluorane. The dorsal skin was incised and the paraspinal muscles were separated from the spinous processes of lumbar vertebrae L2 through L6 to expose the L3 and L5. The spinous processes of L3 and L5 were removed and the vertebral lamina was also removed creating a rectangular laminectomy defect. The test material was placed onto the laminectomy site. […] The site and the tissue were scored 0 to 2. […]

In the next data set the test system is monocytes. The data set can be described thus: Monocyte activation after tubing loop (flow cytometry CD14/CD11b). It counts as cell-based, human. As to conditions: blood after tubing loop. As to the method:
(§1) Chemotactic peptides are produced at the injury site, which can attract inflammatory cells at the injury site causing inflammation. NM2040 was tested to determine if this compound would inhibit the production of the C3a and C5a. The compound was incubated with blood at 37 degree in a rotating tubing loops. Whole blood from a healthy donor was collected into a polypropylene tube containing 5 units of heparin per ml of whole blood. The whole blood was diluted 1:1 with plasmalyte and aliquoted in 2 ml aliquots with and without drug treatments. PVC tubings of 4 mm diameter were filled with 2.0 ml of the heparinized human blood and closed into a loop with a short piece of silicon tubing. […] The plasma samples were diluted to 5% with sample diluent buffer and the amounts of C3a and C5a were determined using ELISA assay kits following the manufacturer's instructions (Quidel Corporation, San Diego Calif.). […] In the same experiment, NM3015 was also evaluated. […]
(§2) Aliquots of blood following the tubing loop were stained with fluorescent labeled antibodies for flow cytometry studies. […] The samples were subjected to flow cytometry using CellQuest, BD-LSR I and the data were analyzed using WinList 5.0. Ln Median was used for calculating the shift in CD11b staining for neutrophils and monocytes. % gated dual labeled cells were quantified for platelet populations.

A further data set has as its system neutrophils. Nature of the data set: Neutrophil activation after tubing loop (flow cytometry CD15/CD11b). The class given is cell-based, human. The conditions noted are these: blood after tubing loop. As to the method: as §1, §2
Background: In flow cytometry, cells or beads pass a laser one at a time.

The next data set has as its system C5a. The data set can be described thus: C5a formation in whole blood tubing loop (ELISA). The conditions noted are these: heparinized human whole blood 1:1 plasmalyte, tubing loop 2 hours 37° C. The class given is cell-based. As to the method:
(§3) Chemotactic peptides are produced at the injury site, which can attract inflammatory cells at the injury site causing inflammation. NM2040 was tested to determine if this compound would inhibit the production of the C3a and C5a. The compound was incubated with blood at 37 degree in a rotating tubing loops. Whole blood from a healthy donor was collected into a polypropylene tube containing 5 units of heparin per ml of whole blood. The whole blood was diluted 1:1 with plasmalyte and aliquoted in 2 ml aliquots with and without drug treatments. PVC tubings of 4 mm diameter were filled with 2.0 ml of the heparinized human blood and closed into a loop with a short piece of silicon tubing. Sample and control tubing loops were rotated vertically in a water bath for 2 hours at 37° C. After incubation, blood samples were transferred into 5 ml siliconized eppendorf tubes. The samples were separated into two aliquots; one aliquot was subjected to flow cytometry studies and the other aliquot was centrifuged to separate the plasma for the measurement of C3a and C5a. The plasma samples were diluted to 5% with sample diluent buffer and the amounts of C3a and C5a were determined using ELISA assay kits following the manufacturer's instructions (Quidel Corporation, San Diego Calif.). […] In the same experiment, NM3015 was also evaluated. […]

In another data set the test system is alternative pathway. The data set can be described thus: Alternative pathway (AP) activation. It counts as cell-based, human. The method, then: as §3
The test system of data set [2] is epidural fibrosis after laminectomy. The data set can be described thus: Rat laminectomy epidural fibrosis model, Example 8. It counts as in vivo. The method, then: Epidural fibrosis was investigated after laminectomies in adult Lewis rats. Laminectomies were performed at the lumbar 3 (L3) and 5 (L5) vertebrae. The test agent gel was applied to one site and saline (control) was applied to the other. Two weeks later, the laminectomy sites were examined for fibrosis by gross dissection as previously described. Briefly, rats were anesthetized. The dorsal skin was incised and the paraspinal muscles were separated from the spinous processes of lumbar vertebrae L2 through L6 to expose L3 and L5. The spinous processes of L3 and L5 and the vertebral lamina were removed, creating a rectangular laminectomy defect approximately 5×2 mm (FIG. 11A). The test material NM2040, or vehicle was placed onto the laminectomy site according to randomized, coded protocol (FIG. 11B). The formulation of NM2040 consisted of 10% gel foam powder, 20 mg/ml final concentration in sterile saline. The mixtures were placed in a syringe, autoclaved and allowed to cool to room temperature prior to placement into the laminectomy site. The fascia overlying the paraspinal muscles was sutured 5-0 polydoxanone PDS resorbable suture (Ethicon) and the skin incision was closed with 7.5 mm Michel wound clips. After two weeks, animals were anesthetized and subjected to gross evaluation. For gross evaluation, the wound site was reopened by incising the skin and separating the paraspinal muscles. Epidural scar formation was designated as the connective tissue between the test material and the dura mater. The thickness and toughness of the deep scar was evaluated by blunt dissection and scored 0 to 2.0 being the “no adhesions” with the dura mater clearly visible, 1 being a thin, lose connective tissue covering the dura that was easily removed, and 2 being a thick, dense tenacious adhesion that was difficult to impossible to remove without tearing the dura. Scoring was completed without knowledge of treatment at any of the laminectomy sites.

In data set [3] the test system is platelets. Nature of the data set: Platelet activation after tubing loop (flow cytometry CD61/CD62P). The class given is cell-based, human. As to conditions: blood after tubing loop. The method, then: as §1, §2
A further data set has as its system 3T3 cells. The data set can be described thus: 3T3 cell proliferation assay (Cy Quant fluorescence). As to conditions: 1 to 600 μg/ml, 5 days, DMEM 10% FCS. The class given is cell-based. The method, then:
Approximately 50,000 cells were plated in a 96 well ELISA plate. The cells were allowed to grow in DMEM with 10% FCS media for 5 days, following which the cells were treated with Cy Quant assay and the inhibition of cellular proliferation was measured using the decreased fluorescence intensity. To evaluate the effect of various concentrations of NM2040 in the cellular proliferation assay, cultures were treated with concentrations ranging from 1 to 600 μg/ml. The total fluorescence intensity was plotted against the concentrations.

For a further data set, the system named is C3a. Nature of the data set: C3a formation in whole blood tubing loop (ELISA). The conditions noted are these: heparinized human whole blood 1:1 plasmalyte, tubing loop 2 hours 37° C. The class given is cell-based. The method, then: as §3
Data set [4] relates to platelets. Nature of the data set: Platelet damage / platelet number after tubing loop (flow cytometry CD61/CD62P). It counts as cell-based, human. The conditions noted are these: blood after tubing loop, FITC CD61 positive platelets. The method, then:
as §3, with “The samples were separated into two aliquots; one aliquot was subjected to flow cytometry studies and the other aliquot was centrifuged to separate the plasma for the measurement of C3a and C5a.” left out
Aliquots of blood following the tubing loop were stained with fluorescent labeled antibodies for flow cytometry studies. […] The samples were subjected to flow cytometry using CellQuest, BD-LSR I and the data were analyzed using WinList 5.0. […]

As for “conjugate of dextran sulfate and 2-(butane-1-sulfonylamino)-3-[4-(4-piperidin-4-yl-butoxy)-phenyl]-propionic acid [NM2040]”, the “glioma proliferation, effect” value with C6 cells (C6 cells, 0.36, 0.75, 1.5 and 3 mg/ml) is recorded as “inhibitory at all doses”. Further, the “concentration of maximal effect on glioma proliferation” value in the data set with C6 cells (first statement) is 3 µg/mL; in the data set with C6 cells (second statement) it was about 1000 µg/mL. The “adhesion scores compared to saline controls” value in [1] is recorded as “significantly lower”. Moreover, in the data set on monocytes, the “monocyte activation (CD11b shift)” value was “significant inhibition of cellular activation”. The “neutrophil activation (CD11b shift)” value with neutrophils was “significant inhibition of cellular activation”. Moreover, the C5a production result in the data set with C5a was “prevent C3a and C5a production in a dose dependent manner”. The “activation of the alternative pathway” value in the data set on alternative pathway was “inhibits activation of the alternative pathway”. For the same substance, in data set [2] (two weeks after laminectomy), the “adhesion scores compared to treatment with vehicle” value is recorded as “significantly reduces adhesion scores”. Also, the “gross appearance of laminectomy site” value in [2] (two weeks after laminectomy) is on record as “thin easily removed connective tissue above the dura to no adhesions”. Also, the “average gross evaluation score of epidural scar (0 to 2)” value in data set [2] (two weeks after laminectomy, gel at site, saline sites scored 2) is given as 0.5. The “histological sections of the vertebral column at L3 (Masson trichrome)” value in data set [2] (two weeks, compared to controls) is given as “smooth filling”. Moreover, the “MRI appearance of laminectomy site” value in data set [2] (two weeks, compared to saline controls) was “the tissue appears to be smooth”. Also, the “platelet activation (% gated CD61/CD62P dual labeled)” value in the data set on platelets [3] was “significant inhibition of cellular activation”. The 3T3 cell proliferation entry in the data set on 3T3 cells is “Inhibits”. The C3a production entry in the data set on C3a is “prevent C3a and C5a production in a dose dependent manner”. In addition, in the data set with platelets [4], the “effect on platelets (platelet damage / number)” value is recorded as “does not affect the platelets; also recorded: does not destroy platelets”.
